Data taken from PubChem BioAssay AID280 (DTP/NCI, 2004).
Where “and” joins values, the source holds several entries; their conditions need not be identical. Equal entries are not always repeated. Toxic doses and inconclusive results are not listed. Starred links: 1 amine or outer side, 2 acyl side, 3 side chain; linkers in the order of their positions; H or OH if unused. Positions of bridges follow the written chain, without caps; N, C: chain ends. Non-standard residues stand in square brackets, D forms with d. Residues, ends and D or L forms follow the SMILES beside them. Chains are numbered I, II in the order given. Actinocin(9to1) = Cc1c2oc3c(C)ccc(C(=O)[*:1])c3nc-2c(C(=O)[*:2])c(N)c1=O; aThr = C[C@H](O)[C@H](N)C(=O)O; NMeV = CN[C@H](C(=O)O)C(C)C; Sar = CNCC(=O)O

Tested on: nude mice, LOX melanoma ip, survival T/C
Assay: NCI In Vivo Anticancer Drug Screen. Data for tumor model Human Amelanotic Melanoma (LOX) (intraperitoneal) in NU/NU BALB/C (nude) mice
Conditions: endpoint: median survival time, higher = longer survival
Experimental: The antitumor activity of compounds was measured in mice bearing transplantable tumors. Survival or tumor size were measured and the results are expressed as the measurement made in the treated group (T) divided by the measurement made in the vehicle treated control group (C). The tumor model used in this assay is Human Amelanotic Melanoma (LOX) (intraperitoneal) in NU/NU BALB/C (nude) mice

[1] = dose: 75.0 mg/kg/injection, schedule: Q04DX003 (ip), vehicle: saline with Tween-80
[2] = dose: 150.0 mg/kg/injection, schedule: Q04DX003 (ip), vehicle: saline with Tween-80
[3] = dose: 300.0 mg/kg/injection, schedule: Q04DX003 (ip), vehicle: saline with Tween-80
[4] = dose: 600.0 mg/kg/injection, schedule: Q04DX003 (ip), vehicle: saline with Tween-80

`CNC(=O)N(C)N=NCCCl` was tested, and the T/C (dose: 100.0 mg/kg/injection, schedule: Q04DX003 (ip), vehicle: saline with Tween-80) was 201 % of control, the T/C (dose: 200.0 mg/kg/injection, schedule: Q04DX003 (ip), vehicle: saline with Tween-80) was 309 % of control and the T/C (dose: 400.0 mg/kg/injection, schedule: Q04DX003 (ip), vehicle: saline with Tween-80) was 309 % of control. The T/C (dose: 800.0 mg/kg/injection, schedule: Q04DX003 (ip), vehicle: saline with Tween-80) was 309 % of control.

In the case of `COc1c(O)cc2c(c1OC)-c1ccc(SC)c(=O)cc1C(NC(C)=O)CC2` (centres undefined), the T/C (dose: 4.0 mg/kg/injection, schedule: Q04DX003 (ip), vehicle: other) is reported as 114 % of control, the T/C (dose: 5.0 mg/kg/injection, schedule: Q04DX003 (ip), vehicle: Klucel (hydroxypropylcellulose) (HPC)) is reported as 151 % of control and 252 % of control and the T/C (dose: 5.9 mg/kg/injection, schedule: Q04DX003 (ip), vehicle: other) is reported as 111 % of control and 116 % of control. The T/C (dose: 8.9 mg/kg/injection, schedule: Q04DX003 (ip), vehicle: other) was 117 % of control, the T/C (dose: 10.0 mg/kg/injection, schedule: Q04DX003 (ip), vehicle: Klucel (hydroxypropylcellulose) (HPC)) was 151 % of control and 305 % of control and the T/C (dose: 20.0 mg/kg/injection, schedule: Q04DX003 (ip), vehicle: other) was 151 % of control and 156 % of control.

With `NCCSC(C[N+](=O)[O-])c1ccccc1Cl` (centres undefined) the T/C (dose: 12.5 mg/kg/injection, schedule: Q04DX003 (ip), vehicle: saline) was 107 % of control, the T/C (dose: 25.0 mg/kg/injection, schedule: Q04DX003 (ip), vehicle: saline) was 115 % of control and the T/C (dose: 50.0 mg/kg/injection, schedule: Q04DX003 (ip), vehicle: saline) was 96 % of control.

For `Oc1ccc(/C=N/Nc2nnc(N/N=C/c3ccc(O)cc3O)c3ccccc23)c(O)c1`, the T/C (dose: 12.5 mg/kg/injection, schedule: Q04DX003 (ip), vehicle: suspension in saline) was 120 % of control and the T/C (dose: 25.0 mg/kg/injection, schedule: Q04DX003 (ip), vehicle: suspension in saline) was 119 % of control.

With `O=C1c2ccccc2C(Cl)(c2ccc(Cl)cc2)c2ccc(Cl)cc21` (centres undefined) the T/C [1] was 93 % of control, the T/C [2] was 116 % of control and the T/C [3] was 92 % of control. For the same molecule, the T/C [4] was 87 % of control and the T/C (dose: 1200.0 mg/kg/injection, schedule: Q04DX003 (ip), vehicle: saline with Tween-80) was 93 % of control.

`Cc1cc(O)c2c(c1O)C(=O)C13C(=C2O)C(=O)C2C(O)C1C1C(O)C3C(=O)C3=C(O)c4c(O)cc(C)c(O)c4C(=O)C321` (centres undefined) was tested, and the T/C (dose: 6.25 mg/kg/injection, schedule: Q04DX003 (ip), vehicle: saline with Tween-80) was 114 % of control.

In the case of `Cc1cc(=NO)cc(C)n1O`, the T/C (dose: 75.0 mg/kg/injection, schedule: Q04DX003 (ip), vehicle: distilled water + alcohol) is reported as 101 % of control, the T/C (dose: 150.0 mg/kg/injection, schedule: Q04DX003 (ip), vehicle: distilled water + alcohol) is reported as 103 % of control and the T/C (dose: 300.0 mg/kg/injection, schedule: Q04DX003 (ip), vehicle: distilled water + alcohol) is reported as 101 % of control. For the same molecule, the T/C (dose: 600.0 mg/kg/injection, schedule: Q04DX003 (ip), vehicle: distilled water + alcohol) was 96 % of control.

`Nc1ncc(C2OC(CO)C(O)C2O)c(=O)[nH]1` (centres undefined) was tested, and the T/C (dose: 62.5 mg/kg/injection, schedule: Q04DX003 (ip), vehicle: saline) was 112 % of control, the T/C (dose: 125.0 mg/kg/injection, schedule: Q04DX003 (ip), vehicle: saline) was 109 % of control and the T/C (dose: 250.0 mg/kg/injection, schedule: Q04DX003 (ip), vehicle: saline) was 100 % of control.

In the case of `Cc1cc2c(=O)cc(-c3ccccc3)oc2c(C(=O)O)c1C`, the T/C (dose: 62.5 mg/kg/injection, schedule: Q04DX003 (ip), vehicle: saline with Tween-80) is reported as 95 % of control, the T/C (dose: 125.0 mg/kg/injection, schedule: Q04DX003 (ip), vehicle: saline with Tween-80) is reported as 94 % of control and the T/C (dose: 250.0 mg/kg/injection, schedule: Q04DX003 (ip), vehicle: saline with Tween-80) is reported as 90 % of control.

In the case of `O=C(O)C1CC(O)CN1` (centres undefined), the T/C (dose: 75.0 mg/kg/injection, schedule: Q04DX003 (ip), vehicle: saline) is reported as 108 % of control, the T/C (dose: 300.0 mg/kg/injection, schedule: Q04DX003 (ip), vehicle: saline) is reported as 112 % of control and the T/C (dose: 600.0 mg/kg/injection, schedule: Q04DX003 (ip), vehicle: saline) is reported as 107 % of control. The T/C (dose: 1200.0 mg/kg/injection, schedule: Q04DX003 (ip), vehicle: saline) was 114 % of control.

`COc1cc(C(C)c2cc3c(cc2OCCO)OCO3)cc(OC)c1OC` (centres undefined) was tested, and the T/C [1] was 114 % of control, the T/C [2] was 94 % of control and the T/C [4] was 152 % of control.

In the case of `N[C@@H](Cc1c[nH]c2ccccc12)C(=O)Nc1nncs1`, the T/C (dose: 75.0 mg/kg/injection, schedule: Q04DX003 (ip), vehicle: suspension in saline) is reported as 107 % of control, the T/C (dose: 150.0 mg/kg/injection, schedule: Q04DX003 (ip), vehicle: suspension in saline) is reported as 94 % of control and the T/C (dose: 300.0 mg/kg/injection, schedule: Q04DX003 (ip), vehicle: suspension in saline) is reported as 94 % of control. The T/C (dose: 600.0 mg/kg/injection, schedule: Q04DX003 (ip), vehicle: suspension in saline) was 119 % of control.

`CN=C(N)N/N=C(\C)c1ccc2sc3ccc(/C(C)=N/NC(N)=NC)cc3c2c1` was tested, and the T/C (dose: 37.5 mg/kg/injection, schedule: Q04DX003 (ip), vehicle: saline with Tween-80) was 121 % of control, the T/C [1] was 117 % of control and the T/C [3] was 182 % of control. For the same molecule, the T/C [4] was 116 % of control.

In the case of `Cc1c2oc3c(C)ccc(C(=O)N[C@@H]4C(=O)N[C@H](C(C)C)C(=O)N5CCC[C@H]5C(=O)N(C)CC(=O)N(C)[C@@H](C(C)C)C(=O)O[C@H]4C)c3nc-2c(C(=O)N[C@@H]2C(=O)N[C@H](C(C)C)C(=O)N3CCC[C@H]3C(=O)N(C)CC(=O)N(C)[C@@H](C(C)C)C(=O)O[C@H]2C)c(N)c1=O` (I: [aThr][dV]P[Sar][NMeV] / II: [aThr][dV]P[Sar][NMeV]; ester I:1-I:C, II:1-II:C; linker I:N-II:N via Actinocin(9to1)), the T/C (dose: 0.07 mg/kg/injection, schedule: Q04DX003 (ip), vehicle: saline) is reported as 185 % of control, the T/C (dose: 0.13 mg/kg/injection, schedule: Q01DX001 (ip), vehicle: saline) is reported as 151 % of control and the T/C (dose: 0.13 mg/kg/injection, schedule: Q04DX003 (ip), vehicle: saline) is reported as 269 % of control. The T/C (dose: 0.25 mg/kg/injection, schedule: Q01DX001 (ip), vehicle: saline) was 153 % of control, the T/C (dose: 0.25 mg/kg/injection, schedule: Q04DX003 (ip), vehicle: saline) was 337 % of control and the T/C (dose: 0.5 mg/kg/injection, schedule: Q01DX001 (ip), vehicle: saline) was 264 % of control. For the same molecule, the T/C (dose: 0.5 mg/kg/injection, schedule: Q04DX003 (ip), vehicle: saline) was 337 % of control, the T/C (dose: 1.0 mg/kg/injection, schedule: Q01DX001 (ip), vehicle: saline) was 337 % of control and the T/C (dose: 1.3 mg/kg/injection, schedule: Q04DX003 (ip), vehicle: saline) was 87 % of control. For the same molecule, the T/C (dose: 0.13 micrograms/kg/injection, schedule: Q01DX005 (ip), vehicle: saline) was 162 % of control, the T/C (dose: 0.13 micrograms/kg/injection, schedule: Q01DX015 (ip), vehicle: saline) was 207 % of control and the T/C (dose: 25.0 micrograms/kg/injection, schedule: Q01DX005 (ip), vehicle: saline) was 191 % of control. The T/C (dose: 25.0 micrograms/kg/injection, schedule: Q01DX015 (ip), vehicle: saline) was 337 % of control, the T/C (dose: 50.0 micrograms/kg/injection, schedule: Q01DX005 (ip), vehicle: saline) was 337 % of control and the T/C (dose: 50.0 micrograms/kg/injection, schedule: Q01DX015 (ip), vehicle: saline) was 337 % of control. The T/C (dose: 100.0 micrograms/kg/injection, schedule: Q01DX005 (ip), vehicle: saline) was 337 % of control and the T/C (dose: 100.0 micrograms/kg/injection, schedule: Q01DX015 (ip), vehicle: saline) was 337 % of control.

With `CCCCCCn1c(SC)nc(COC(=O)NC)c1COC(=O)NC` the T/C (dose: 33.7 mg/kg/injection, schedule: Q04DX003 (ip), vehicle: saline) was 118 % of control, the T/C (dose: 40.1 mg/kg/injection, schedule: Q04DX003 (ip), vehicle: water) was 97 % of control and the T/C (dose: 60.1 mg/kg/injection, schedule: Q04DX003 (ip), vehicle: water) was 87 % of control. The T/C (dose: 67.5 mg/kg/injection, schedule: Q04DX003 (ip), vehicle: saline) was 171 % of control, the T/C (dose: 90.0 mg/kg/injection, schedule: Q04DX003 (ip), vehicle: water) was 97 % of control and the T/C (dose: 135.0 mg/kg/injection, schedule: Q04DX003 (ip), vehicle: saline) was 208 % of control. The T/C (dose: 135.0 mg/kg/injection, schedule: Q04DX003 (ip), vehicle: water) was 86 % of control and the T/C (dose: 202.4 mg/kg/injection, schedule: Q04DX003 (ip), vehicle: water) was 99 % of control.

In the case of `CC[C@@]1(O)C[C@H](OC2CC(N(C)C)C(OC3CC4OC5CC(=O)C(C)OC5OC4C(C)O3)C(C)O2)c2c(O)c3c(c(O)c2[C@H]1OC1CC(N(C)C)C(O)C(C)O1)C(=O)c1cccc(O)c1C3=O` (some centres undefined), the T/C (dose: 63.0 micrograms/kg/injection, schedule: Q04DX003 (ip), vehicle: saline) is reported as 115 % of control, the T/C (dose: 125.0 micrograms/kg/injection, schedule: Q04DX003 (ip), vehicle: saline) is reported as 111 % of control and the T/C (dose: 250.0 micrograms/kg/injection, schedule: Q04DX003 (ip), vehicle: saline) is reported as 108 % of control and 94 % of control.
